Target: human PAD4 (hPAD4) (Homo sapiens (Human), UniProt Q9UM07)
Assay: RFMS Human PAD4 Functional Assay 1
Format: biochemical
Conditions: RFMS assay 1; 5 nM hPAD4, 250 μM BAEE substrate, 50 μM calcium, 37° C.
Procedure, shortened: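 Citrullination product read by RapidFire triple-quad MRM against a modified-citrulline internal standard, after TCA stop and 30 min phenyl glyoxal step at 37 °C. Reaction: 250 μM BAEE, 5 nM human PAD4, 90 min at 37 °C, pH 7.5 HEPES buffer with 50 μM calcium and 5 μM TPEN, following 30 min compound–enzyme preincubation (max 50 μM).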

Chain of human PAD4 (hPAD4) (Q9UM07 whole entry): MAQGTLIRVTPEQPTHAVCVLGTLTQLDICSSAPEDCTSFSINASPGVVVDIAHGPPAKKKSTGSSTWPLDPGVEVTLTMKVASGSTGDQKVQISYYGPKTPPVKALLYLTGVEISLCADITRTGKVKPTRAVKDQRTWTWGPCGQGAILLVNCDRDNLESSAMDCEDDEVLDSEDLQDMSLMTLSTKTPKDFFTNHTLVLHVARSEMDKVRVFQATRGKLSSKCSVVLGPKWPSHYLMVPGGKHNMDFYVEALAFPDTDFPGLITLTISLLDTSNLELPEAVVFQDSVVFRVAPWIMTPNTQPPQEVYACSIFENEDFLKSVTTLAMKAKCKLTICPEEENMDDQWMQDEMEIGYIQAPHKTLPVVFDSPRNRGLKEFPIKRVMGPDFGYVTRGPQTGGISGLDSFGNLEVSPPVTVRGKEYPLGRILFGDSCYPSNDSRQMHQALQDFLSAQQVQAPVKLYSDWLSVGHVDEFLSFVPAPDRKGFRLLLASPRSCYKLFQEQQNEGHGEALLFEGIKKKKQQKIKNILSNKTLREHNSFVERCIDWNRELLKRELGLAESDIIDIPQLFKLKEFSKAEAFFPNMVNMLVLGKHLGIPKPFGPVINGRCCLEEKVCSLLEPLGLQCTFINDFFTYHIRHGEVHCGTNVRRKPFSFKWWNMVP

| Compound | IC50 |
| --- | --- |
| COC(C)(C)C(=O)N1CCC(c2cccc3cc(-c4nn5cc(C(=O)N6C[C@H](N)C[C@@H](F)C6)cc(F)c5c4C)n(CC4CC4)c23)CC1 [Example 417, 1-(4-(2-(6-((3R,5R)-3-Amino-5-fluoropiperidin-1-carbonyl)-4-fluoro-3-methylpyrazolo[1,5-a]pyridin-2-yl)-1-(cyclopropylmethyl)-1H-indol-7-yl)piperidin-1-yl)-2-methoxy-2-methylpropan-1-one] | 5060 nM |
| COC(C)(C)C(=O)N1CCC(c2cccc3cc(-c4nn5cc(C(=O)N6CCC[C@@H](N)C6)cc(F)c5c4C)n(CC4CC4)c23)CC1 [Example 418, (R)-1-(4-(2-(6-(3-Aminopiperidin-1-carbonyl)-4-fluoro-3-methylpyrazolo[1,5-a]pyridin-2-yl)-1-(cyclopropylmethyl)-1H-indol-7-yl)piperidin-1-yl)-2-methoxy-2-methylpropan-1-one] | 1710 nM |
| CO[C@@H](C)C(=O)N1CCC(c2cccc3cc(-c4nn5cc(C(=O)N6C[C@H](N)C[C@@H](F)C6)cc(F)c5c4C)n(CC4CC4)c23)CC1 [Example 423, (S)-1-(4-(2-(6-((3R,5R)-3-Amino-5-fluoropiperidine-1-carbonyl)-4-fluoro-3-methylpyrazolo[1,5-a]pyridin-2-yl)-1-(cyclopropylmethyl)-1H-indol-7-yl)piperidin-1-yl)-2-methoxypropan-1-one] | 150 nM |
| CO[C@@H](C)C(=O)N1CCC(c2cccc3cc(-c4nn5cc(C(=O)N6CCC[C@@H](N)C6)cc(F)c5c4C)n(CC4CC4)c23)CC1 [Example 424, (S)-1-(4-(2-(6-((R)-3-Aminopiperidine-1-carbonyl)-4-fluoro-3-methylpyrazolo[1,5-a]pyridin-2-yl)-1-(cyclopropylmethyl)-1H-indol-7-yl)piperidin-1-yl)-2-methoxypropan-1-one] | 80 nM |
| CC(=O)N1CCC(c2cccc3cc(-c4nn5cc(C(=O)N6C[C@H](N)C[C@@H](F)C6)cc(F)c5c4C)n(CC4CC4)c23)CC1 [Example 427, 1-(4-(2-(6-((3R,5R)-3-Amino-5-fluoropiperidine-1-carbonyl)-4-fluoro-3-methylpyrazolo[1,5-a]pyridin-2-yl)-1-(cyclopropylmethyl)-1H-indol-7-yl)piperidin-1-yl)ethan-1-one] | 20 nM |
| Cc1c(-c2cc3cccc(C4CCN(C(=O)COC(C)C)CC4)c3n2CC2CC2)nn2cc(C(=O)N3C[C@H](N)C[C@@H](F)C3)ccc12 [Example 431, 1-(4-(2-(6-((3R,5R)-3-amino-5-fluoropiperidine-1-carbonyl)-3-methylpyrazolo[1,5-a]pyridin-2-yl)-1-(cyclopropylmethyl)-1H-indol-7-yl)piperidin-1-yl)-2-isopropoxyethan-1-one] | 130 nM |
| Cc1c(-c2cc3cccc(C4CCN(C(=O)COC(C)C)CC4)c3n2CC2CC2)nn2cc(C(=O)N3CCC[C@@H](N)C3)ccc12 [Example 432, (R)-1-(4-(2-(6-(3-aminopiperidine-1-carbonyl)-3-methylpyrazolo[1,5-a]pyridin-2-yl)-1-(cyclopropylmethyl)-1H-indol-7-yl)piperidin-1-yl)-2-isopropoxyethan-1-one] | 200 nM |
| Cc1c(-c2cc3cccc(C4CCN(C(=O)C(C)(C)O)CC4)c3n2CC2CC2)nn2cc(C(=O)N3CCC[C@@H](N)C3)ccc12 [Example 436, (R)-1-(4-(2-(6-(3-aminopiperidine-1-carbonyl)-3-methylpyrazolo[1,5-a]pyridin-2-yl)-1-(cyclopropylmethyl)-1H-indol-7-yl)piperidin-1-yl)-2-hydroxy-2-methylpropan-1-one] | 300 nM |
| Cc1c(-c2cc3cccc(C4CCN(C(=O)CO)CC4)c3n2CC2CC2)nn2cc(C(=O)N3C[C@H](N)C[C@@H](F)C3)ccc12 [Example 438, 1-(4-(2-(6-((3R,5R)-3-amino-5-fluoropiperidine-1-carbonyl)-3-methylpyrazolo[1,5-a]pyridin-2-yl)-1-(cyclopropylmethyl)-1H-indol-7-yl)piperidin-1-yl)-2-hydroxyethan-1-one] | 30 nM |
| Cc1c(-c2cc3cccc(C4CCN(C(=O)[C@@H]5CCC[C@H](O)C5)CC4)c3n2CC2CC2)nn2cc(C(=O)N3CCC[C@@H](N)C3)ccc12 [Example 440, ((R)-3-aminopiperidin-1-yl)(2-(1-(cyclopropylmethyl)-7-(1-((1R,3S)-3-hydroxycyclohexane-1-carbonyl)piperidin-4-yl)-1H-indol-2-yl)-3-methylpyrazolo[1,5-a]pyridin-6-yl)methanone] | 60 nM |
| CCOCC(=O)N1CCC(c2cccc3cc(-c4nn5cc(C(=O)N6C[C@H](N)C[C@@H](F)C6)ccc5c4C)n(CC4CC4)c23)CC1 [Example 442, 1-(4-(2-(6-((3R,5R)-3-amino-5-fluoropiperidine-1-carbonyl)-3-methylpyrazolo[1,5-a]pyridin-2-yl)-1-(cyclopropylmethyl)-1H-indol-7-yl)piperidin-1-yl)-2-ethoxyethan-1-one] | 30 nM |

More lines, in order of falling IC50, values ahead:

| IC50 | Compound |
| --- | --- |
| 380 nM | Cc1c(-c2cc3cccc(C4CCN(C(=O)C(C)(C)O)CC4)c3n2CC2CC2)nn2cc(C(=O)N3C[C@H](N)C[C@@H](F)C3)ccc12 [Example 435, 1-(4-(2-(6-((3R,5R)-3-amino-5-fluoropiperidine-1-carbonyl)-3-methylpyrazolo[1,5-a]pyridin-2-yl)-1-(cyclopropylmethyl)-1H-indol-7-yl)piperidin-1-yl)-2-hydroxy-2-methylpropan-1-one] |
| 250 nM | Cc1c(-c2cc3cccc(C4CCN(C(=O)C(C)(C)CO)CC4)c3n2CC2CC2)nn2cc(C(=O)N3CCC[C@@H](N)C3)ccc12 [Example 434, (R)-1-(4-(2-(6-(3-aminopiperidine-1-carbonyl)-3-methylpyrazolo[1,5-a]pyridin-2-yl)-1-(cyclopropylmethyl)-1H-indol-7-yl)piperidin-1-yl)-3-hydroxy-2,2-dimethylpropan-1-one] |
| 140 nM | Cc1c(-c2cc3cccc(C4CCN(C(=O)C(C)(C)CO)CC4)c3n2CC2CC2)nn2cc(C(=O)N3C[C@H](N)C[C@@H](F)C3)ccc12 [Example 433, 1-(4-(2-(6-((3R,5R)-3-amino-5-fluoropiperidine-1-carbonyl)-3-methylpyrazolo[1,5-a]pyridin-2-yl)-1-(cyclopropylmethyl)-1H-indol-7-yl)piperidin-1-yl)-3-hydroxy-2,2-dimethylpropan-1-one] |
| 110 nM | Cc1c(-c2cc3cccc(C4CCN(C(=O)CCO)CC4)c3n2CC2CC2)nn2cc(C(=O)N3CCC[C@@H](N)C3)ccc12 [Example 437, (R)-1-(4-(2-(6-(3-aminopiperidine-1-carbonyl)-3-methylpyrazolo[1,5-a]pyridin-2-yl)-1-(cyclopropylmethyl)-1H-indol-7-yl)piperidin-1-yl)-3-hydroxypropan-1-one] |
| 80 nM | Cc1c(-c2cc3cccc(C4CCN(C(=O)CCO)CC4)c3n2CC2CC2)nn2cc(C(=O)N3C[C@H](N)C[C@@H](F)C3)ccc12 [Example 430, 1-(4-(2-(6-((3R,5R)-3-amino-5-fluoropiperidine-1-carbonyl)-3-methylpyrazolo[1,5-a]pyridin-2-yl)-1-(cyclopropylmethyl)-1H-indol-7-yl)piperidin-1-yl)-3-hydroxypropan-1-one] |
| 60 nM | CCOCC(=O)N1CCC(c2cccc3cc(-c4nn5cc(C(=O)N6CCC[C@@H](N)C6)ccc5c4C)n(CC4CC4)c23)CC1 [Example 441, (R)-1-(4-(2-(6-(3-aminopiperidine-1-carbonyl)-3-methylpyrazolo[1,5-a]pyridin-2-yl)-1-(cyclopropylmethyl)-1H-indol-7-yl)piperidin-1-yl)-2-ethoxyethan-1-one] |
| 50 nM | CO[C@H](C)C(=O)N1CCC(c2cccc3cc(-c4nn5cc(C(=O)N6C[C@H](N)C[C@@H](F)C6)cc(F)c5c4C)n(CC4CC4)c23)CC1 [Example 425, (R)-1-(4-(2-(6-((3R,5R)-3-Amino-5-fluoropiperidine-1-carbonyl)-4-fluoro-3-methylpyrazolo[1,5-a]pyridin-2-yl)-1-(cyclopropylmethyl)-1H-indol-7-yl)piperidin-1-yl)-2-methoxypropan-1-one] |
| 50 nM | CO[C@H](C)C(=O)N1CCC(c2cccc3cc(-c4nn5cc(C(=O)N6CCC[C@@H](N)C6)cc(F)c5c4C)n(CC4CC4)c23)CC1 [Example 426, (R)-1-(4-(2-(6-((R)-3-Aminopiperidine-1-carbonyl)-4-fluoro-3-methylpyrazolo[1,5-a]pyridin-2-yl)-1-(cyclopropylmethyl)-1H-indol-7-yl)piperidin-1-yl)-2-methoxypropan-1-one] |
| 40 nM | COCC(=O)N1CCC(c2cccc3cc(-c4nn5cc(C(=O)N6CCC[C@@H](N)C6)cc(F)c5c4C)n(CC4CC4)c23)CC1 [Example 429, (R)-1-(4-(2-(6-(3-Aminopiperidine-1-carbonyl)-4-fluoro-3-methylpyrazolo[1,5-a]pyridin-2-yl)-1-(cyclopropylmethyl)-1H-indol-7-yl)piperidin-1-yl)-2-methoxyethan-1-one] |
| 30 nM | COCC(=O)N1CCC(c2cccc3cc(-c4nn5cc(C(=O)N6C[C@H](N)C[C@@H](F)C6)cc(F)c5c4C)n(CC4CC4)c23)CC1 [Example 428, 1-(4-(2-(6-((3R,5R)-3-Amino-5-fluoropiperidine-1-carbonyl)-4-fluoro-3-methylpyrazolo[1,5-a]pyridin-2-yl)-1-(cyclopropylmethyl)-1H-indol-7-yl)piperidin-1-yl)-2-methoxyethan-1-one] |
| 30 nM | Cc1c(-c2cc3cccc(C4CCN(C(=O)CO)CC4)c3n2CC2CC2)nn2cc(C(=O)N3CCC[C@@H](N)C3)ccc12 [Example 439, (R)-1-(4-(2-(6-(3-aminopiperidine-1-carbonyl)-3-methylpyrazolo[1,5-a]pyridin-2-yl)-1-(cyclopropylmethyl)-1H-indol-7-yl)piperidin-1-yl)-2-hydroxyethan-1-one] |

Reference: patent US12473304B2, “Heterocyclic PAD4 inhibitors” (BRISTOL-MYERS SQUIBB COMPANY, priority 2020, dated 2025)
